Measured values taken from patent US6593369B2, “Methods, compositions, and kits for enhancing female sexual desire and responsiveness” (Vivus, Inc., priority 1997, dated 2003).
Values after ≈ are worked out from the molar mass of the structure shown.

Legend:
clitoris [1] = experiment: Measurement of clitoral skin temperature after topical application to the clitoris; format: in vivo, human
Excerpt: 2. Measurement of clitoral skin temperature:
A highly sensitive thermocouple capable of determining changes in skin temperature of 0.002 degrees Fahrenheit was connected to a computer-based recording device (F1000 by Focused Technology, Inc.) and used to measure changes in clitoral skin temperature. The patient changed from their clothes into a gown and was placed in a semi-reclining position in a comfortable recliner. Room temperature was controlled at 76 degrees F. (±1) and no air drafts were present. The thermocouple was coated with a small amount of lubricating jelly and placed in a labial skin fold adjacent to the clitoris. A period of equilibration (˜15 minutes) allowed the measured temperature to stabilize. Next, precise doses of various pharmaceuticals were applied as solutions directly to the clitoris by a calibrated micropipette (Justor 1100DG, Sigma; St. Louis, Mo.). Typical volumes used were 20-50 microliters. Clitoral temperatures were continually measured and printed for analysis. Increases in skin temperature directly correlate with changes in cutaneous blood flow. See Birnbaum (U.S. Pat. No. 4,311,707) for an example of using this method to compare the relative vasodilatory potency of topical prostaglandins. Changes in skin temperature are reported as maximum recorded temperature in an interval minus the temperature at the end of the equilibration period. The magnitudes of these recorded temperature changes may be used as a measurement of the change in clitoral blood flow.
(§1) 1. Solutions of prostaglandin E-1 and E-2 were prepared by dissolving weighed amounts of the prostaglandin in triacetin to produce a concentrated stock solution. Serial dilutions of this stock solution were made by a micropipette. Since triacetin can partially hydrolyze on standing to produce traces of acetic acid, the triacetin was treated with a small amount of a concentration potassium bicarbonate solution to remove any acetic acid, then dried with magnesium sulfate and filtered to give a triacetin free of acid or water. Solutions were used the same day that they were made. Concentrations of prostaglandin varied from 2.0-1,000 micrograms per milliliter of triacetin. Following equilibration of clitoral temperature, a dose of triacetin was applied to the clitoris prior to active drug solutions to determine the effect of the carrier on the clitoris.
(§2) 2. R-alphamethylhistamine hydrochloride is not soluble in triacetin but is soluble in saline. Normal saline +2 millimolar potassium phosphate at pH 7.4 was used to prepare solutions of R-alphamethylhistamine hydrochloride with concentrations from 2.5-100 micrograms per milliliter of saline.
(§3) Solutions were applied directly to the clitoris by means of a calibrated micropipette (Justor 1100DG, Sigma; St. Louis, Mo.).

Solubility in water = format: physicochemical
Method: 5 mg of PGE-2 is added to sterile cold water (10 ml, 1 mM in sodium citrate), stirred until dissolved and the pH adjusted with either NaOH or HCl, to a pH of about 5.4.

clitoral artery = experiment: Measurement of clitoral blood flow by ultrasound (Doppler velocitometer); format: in vivo, human; settings: Patient No. 1; for Change in Clitoral Blood Flow: peak systolic flow vs baseline; for Change in Clitoral Blood Flow, percent in brackets: vs baseline
Excerpt: 1. Measurement of clitoral blood flow by ultrasound:
Clitoral blood flow was estimated by utilizing the Knoll-Midas ultrasonic Doppler velocitometer (Urometrics, Inc.). The ultrasound probe was manually positioned over the middle of the clitoral body as it courses superficially through the perineum between the external vaginal opening and the end of the clitoris (glans clitoris). […] This method is analogous to that used in measuring the cavernosal artery velocity in the penis. The clitoral artery was easily visualized. Measurements were made at baseline and at various time intervals following the application of a drug to the clitoris. Peak systolic blood flow at baseline was compared to peak systolic blood flow following drug administration as a method of comparing relative efficacy in inducing clitoral artery vasodilatation in a manner analogous to studies of such drugs in men.
as §1, §3

clitoris [2] = experiment: Patient subjective reports of sexual arousal and symptoms after application to the clitoris; format: in vivo, human
Method: 3. Patient Subjective Reports:
Patient reports of symptoms and effects of agents on sexual arousal measures (such as warmth and tingling, vaginal lubrication and excitation) were recorded. Blood pressure and pulse were also recorded. Different drugs were given on different days. Some series of drug titrations were recorded on several days.
as §1, §2, §3

clitoris [3] = experiment: Subjective examples: composition applied directly to the clitoris of female subjects; format: in vivo, human
Excerpt: The clitoris is often retracted or hidden under the clitoral hood. Thus, prior to administration of the present composition, the clitoral hood should be retracted with the finger of one hand, and the clitoral hood should be held back as the dose is applied. IV. Subjective Examples

[4] = Chemical stability of prostaglandin preparations; format: physicochemical; settings: composition containing a citrate salt or tocopherol
[5] = Patient No. 1, 0.400 mcg in triacetin on clitoris
[6] = Patient No. 1, 1.000 mcg in triacetin on clitoris
[7] = Patient No. 1, 20.0 mcg in triacetin on clitoris
[8] = Patient No. 1, 50.0 mcg in triacetin on clitoris
[9] = Patient No. 1, 200.0 mcg in triacetin on clitoris
[10] = Patient No. 2, 1.000 mcg in triacetin on clitoris
[11] = Patient No. 2, 10.0 mcg in triacetin on clitoris
[12] = Patient No. 2, 100.0 mcg in triacetin on clitoris
[13] = Example 2, 50 μg with 150 μg phentolamine hydrochloride
[14] = Example 6, 300 μg liposomal mixture after 50 mg naltrexone HCl 2 hours before, person, anorgasmia secondary to paroxetine
[15] = Patient No. 1, 0.020 mcg in triacetin on clitoris
[16] = Patient No. 1, 0.200 mcg in triacetin on clitoris
[17] = Patient No. 1, 10.0 mcg in triacetin on clitoris
[18] = Patient No. 1, 1.0 mcg in saline on clitoris
[19] = Patient No. 1, 10.0 mcg in saline on clitoris
[20] = Patient No. 1, 100.0 mcg in saline on clitoris

CCCCC[C@H](O)/C=C/[C@H]1[C@H](O)CC(=O)[C@@H]1CCCCCCC(=O)O [PGE-1, 3-hydroxy-2-(3-hydroxy-1-octenyl)-5-oxocyclopentaneheptanoic acid]
Temperature Change (clitoris [1]; [5]): −0.6 ° F.
Temperature Change (clitoris [1]; [6]): 0.3 ° F.
Temperature Change (clitoris [1]; [7]): 0.3 ° F.
Temperature Change (clitoris [1]; [8]): 0.1 ° F.
Temperature Change (clitoris [1]; Patient No. 1, 100.0 mcg in triacetin on clitoris): 2.7 ° F.
Temperature Change (clitoris [1]; [9]): 0.4 ° F.
Clitoral temperature effect (conclusion) (clitoris [1]; Patient No. 2): did not have a temperature increase
Temperature Change (clitoris [1]; [10]): −0.35 ° F.
Temperature Change (clitoris [1]; [11]): −0.10 ° F.
Temperature Change (clitoris [1]; [12]): −0.10 ° F.
solubility (Solubility in water): 80 µg/mL (≈ 226 µM)
Change in Clitoral Blood Flow (clitoral artery; 20.0 mcg in triacetin): 4 cm/s
Change in Clitoral Blood Flow, percent in brackets (clitoral artery; 20.0 mcg in triacetin): +46%
Change in Clitoral Blood Flow (clitoral artery; 50.0 mcg in triacetin): 3.5 cm/s
Change in Clitoral Blood Flow, percent in brackets (clitoral artery; 50.0 mcg in triacetin): +32%
Change in Clitoral Blood Flow (clitoral artery; 100.0 mcg in triacetin): 6.5 cm/s
Change in Clitoral Blood Flow, percent in brackets (clitoral artery; 100.0 mcg in triacetin): +33%
Change in Clitoral Blood Flow (clitoral artery; 200.0 mcg in triacetin): 11 cm/s
Change in Clitoral Blood Flow, percent in brackets (clitoral artery; 200.0 mcg in triacetin): +80%
Doses giving pleasurable feelings (clitoris [2]; Patient No. 1): ≥ 20 µg
Doses with adverse effects (clitoris [2]; Patient No. 1): adverse effects at all doses
Subjective Response (clitoris [2]; [5]): Felt cold.
Subjective Response (clitoris [2]; [6]): Clitoral burning; 6/10;
Subjective Response (clitoris [2]; [7]): Clitoral burning; 4/10.
Subjective Response (clitoris [2]; [8]): Exciting. Jaw pain.
Subjective Response (clitoris [2]; [9]): Diffuse pain, flushing,
Overall effects (clitoris [2]; Patient No. 2): neither positive nor negative effects
Subjective Response (clitoris [2]; [10]): Felt drop go on. No
Subjective Response (clitoris [2]; [11]): Felt drop go on. No
Subjective Response (clitoris [2]; [12]): Felt nothing.

CCCCC[C@H](O)/C=C/[C@H]1[C@H](O)CC(=O)[C@@H]1C/C=C\CCCC(=O)O [PGE-2, 7-[3-hydroxy-2-(3-hydroxy-1-octenyl)-5-oxocyclopentyl]-5-heptenoic acid]
Sexual response after application (clitoris [3]; Example 1A, 20 μg with 150 μg phentolamine hydrochloride and 3 mg papaverine hydrochloride in liposomal solution, person, no sexual dysfunction): the clitoris became engorged and vaginal lubrication was noted
Sexual response after application (clitoris [3]; Example 1B, 125 μg with 125 μg phentolamine, aqueous solution, 2 drops, same person): essentially the same response as in part A
Sexual response after application (clitoris [3]; Example 1C, 125 μg alone in aqueous saline, 3 drops, same person): the same response described in part A but with reduced intensity
Duration of clitoral enlargement and sexual excitement (clitoris [3]; [13]): gone within one hour after application of the composition
Time at which stimulation peaked after application (clitoris [3]; [13]): around 15 minutes
Sexual response after application (clitoris [3]; Example 2, 50 μg with 150 μg phentolamine hydrochloride, aqueous solution, person, no sexual dysfunction): warm tingling sexual feelings in their clitoris within one minute
Response to repeat dosing (clitoris [3]; Example 2, repeat dose one and a half hours after the first dose): gave the same response as the first dose
Intensity of response rated by subject (clitoris [3]; Example 2, scale of one (1) to ten (10), ten highest, 50 μg with 150 μg phentolamine hydrochloride): 8
Sexual response after application (clitoris [3]; Example 5, 150 μg in liposomal solution, three drops, person with decreased sexual responsiveness): greatly increased their sexual desire and responsiveness
Sexual response after application (clitoris [3]; [14]): had the best sexual experience of their life
Time to tingling sexual feelings spreading over body (clitoris [3]; [14]): ≤ 1 min
Temperature Change (clitoris [1]; [15]): 2.1 ° F.
Potency relative to PGE-1 (clitoral temperature increase) (clitoris [1]; Patient No. 1, 0.200 mcg PGE-2 about equal to 100 mcg PGE-1): about 500 times
Temperature Change (clitoris [1]; [16]): 2.4 ° F.
Temperature Change (clitoris [1]; [5]): 4.5 ° F.
Temperature Change (clitoris [1]; [6]): 2.3 ° F.
Temperature Change (clitoris [1]; [17]): 4.8 ° F.
Temperature Change (clitoris [1]; [8]): 2.0 ° F.
Temperature Change (clitoris [1]; Patient No. 2, 0.050 mcg in triacetin on clitoris): 1.8 ° F.
Temperature Change (clitoris [1]; [10]): 2.4 ° F.
Temperature Change (clitoris [1]; [11]): 2.0 ° F.
Clitoral temperature effect (conclusion) (clitoris [1]; both patients): increases in clitoral temperatures
Change in Clitoral Blood Flow (clitoral artery; 0.020 mcg in triacetin): 0 cm/s
Change in Clitoral Blood Flow (clitoral artery; 0.200 mcg in triacetin): 11 cm/s
Change in Clitoral Blood Flow, percent in brackets (clitoral artery; 0.200 mcg in triacetin): +50%
Change in Clitoral Blood Flow (clitoral artery; 0.400 mcg in triacetin): 12 cm/s
Change in Clitoral Blood Flow, percent in brackets (clitoral artery; 0.400 mcg in triacetin): +92%
Change in Clitoral Blood Flow (clitoral artery; 1.000 mcg in triacetin): 10 cm/s
Change in Clitoral Blood Flow, percent in brackets (clitoral artery; 1.000 mcg in triacetin): +77%
Change in Clitoral Blood Flow (clitoral artery; 10.0 mcg in triacetin): 10 cm/s
Change in Clitoral Blood Flow, percent in brackets (clitoral artery; 10.0 mcg in triacetin): +100%
Change in Clitoral Blood Flow (clitoral artery; 50.0 mcg in triacetin): 2 cm/s
Change in Clitoral Blood Flow, percent in brackets (clitoral artery; 50.0 mcg in triacetin): +20%
Dose resulting in an increase in clitoral blood flow (clitoral artery; triacetin solution with palmitic acid (PGDH inhibitor) and PGE2 in 10:1 weight ratio): 0.4 nanograms
Best dose (clitoris [2]; Patient No. 1): 0.400 µg
Doses with adverse effects (clitoris [2]; Patient No. 1): 50 µg
Subjective Response (clitoris [2]; [15]): Rare tingle.
Subjective Response (clitoris [2]; [16]): Very excited.
Subjective Response (clitoris [2]; [5]): Very excited, 9/10.
Subjective Response (clitoris [2]; [6]): Excited, 7/10.
Subjective Response (clitoris [2]; [17]): Very excited.
Subjective Response (clitoris [2]; [8]): Excited. 2/10 abdominal
Dose with subjective reports of a sexual response (clitoris [2]; Patient No. 1, triacetin solution with palmitic acid (PGDH inhibitor) and PGE2 in 10:1 weight ratio): 2 nanograms
Amount giving a sexual response (clitoris [2]; Patient No. 2): ≥ 0.050 µg
Subjective Response (clitoris [2]; [10]): Excited.
Stability in composition [4]: especially stabile

C[C@@H](N)Cc1c[nH]cn1.Cl [R-alphamethylhistamine, R-alphamethylhistamine hydrochloride]
Overall effect on temperature and sexual excitement (clitoris [1]; Patient No. 1): decreased temperature and decreased sexual excitement
Temperature Change (clitoris [1]; [18]): −0.1 ° F.
Temperature Change (clitoris [1]; [19]): −0.5 ° F.
Temperature Change (clitoris [1]; [20]): 0.1 ° F.
Subjective Response (clitoris [2]; [18]): None.
Subjective Response (clitoris [2]; [19]): Numb feeling in clitoris.
Subjective Response (clitoris [2]; [20]): Clitoral burning; 2/10;
